This passage reports osmotic coefficient results from the NIST ThermoML archive (doi:10.1021/je500271z).

The data set is described as follows: osmotic coefficient (dimensionless); mn = molality of the nth substance listed, in mol/kg. As to conditions: 298.15 K, Liquid, vapor pressure osmometry.

Numbers after ± are expanded uncertainties.

As to `[Cl-].[Na+]` [sodium chloride] + O, the osmotic coefficient runs as follows: (m1 = 0.2485) 0.95 ± 0.02; (m1 = 0.5058) 0.922 ± 0.02; (m1 = 1.993) 0.976 ± 0.02.
